Experimental findings from patent US20220362299A1, “ENGINEERED NATURAL KILLER CELLS AND METHODS FOR USING THE SAME IN IMMUNOTHERAPY AND AUTOPHAGY INHIBITON TECHNIQUES” (Purdue Research Foundation, priority 2019, published 2022) are described below.

One assay concerns GBM43 cells. Briefly: ELISA of CCL5 and CXCL10 in supernatant of GBM43 cells. The format is cell-based, human. As to conditions: with CQ 50 μM, 24 h. The text has this: To evaluate changes in the protein levels of these chemokines and gain more insight into the underlying molecular mechanisms, chemokine concentrations were quantified in the conditioned media of CQ-treated GBM43 cells using ELISA in absence and presence of various pharmacological inhibitors driving signaling pathways for these chemokines. This included the PI3K inhibitor LY294002, NF-κB inhibitor BAY11-7082 and JNK inhibitor SP600125.
More specifically, to measure secreted CCL5 and CXCL10, GBM43 cells were treated with CQ at a final concentration of 50 μM in presence or absence of various small molecule inhibitors, including LY294002, BAY11-7082 and SP600125 for 24 hours. Supernatants were collected and the levels of CCL5 and CXCL10 were quantified using Human CCL5 and CXCL10 Biolegend-ELISA MAX™ Deluxe Sets according to the manufacturer's directions. To look at the levels of multiple chemokines secretion from GBM43 cells, the cell culture supernatants were also collected and all the selected targets were determined with the chemokine array provided by Eve Technologies (Calgary, Canada).
(ELISA stands for enzyme-linked immunosorbent assay.)

Assay [1] relates to pNK cells. Kind of assay: Effect of adenosine on pNK cell viability (CCK-8) and NKG2D expression (flow cytometry). The class given is cell-based, human. As to conditions: 1000 μM adenosine, 24 h. Here is the method: To verify this, pNK cells were seeded into a 24-well plate at a density of 5×10^5 cells/well in 500 μL medium. Adenosine was then added to a final concentration of 1000 μM. After 24 h, the cells were collected and their viability (%) was determined via a CCK-8 assay (subpart A of FIG. 2). The NKG2D expression (% and MFI) was determined by flow cytometry (subpart B of FIG. 2). […] These findings support that there is a need to increase NKG2D expression on NK cells through engineering.
(Flow cytometry measures light scatter and fluorescence of single cells or particles in a stream.)

Assay [2] concerns pNK cells. Briefly: Transwell BBB migration assay of pNK cells. The class given is cell-based, human. As to conditions: 100 ng/mL in lower chamber, 6 hours. On the procedure: To determine involvement of CCL5 and CXCL10 in the migration of NK cells, the migration of activated pNK cells toward CCL5 and CXCL10 gradients was then tracked using an in vitro BBB model setup by a direct contact co-culture of primary human astrocytes and […] human cerebral microvessel endothelial cells (FIG. 12, subpart G).
An in vitro direct contact co-culture blood-brain barrier (BBB) model was established as previously described^53. Briefly, human astrocytes were seeded at a density of 4×10^4 cells/cm^2 into 24-well Transwell® inserts (pore size 5 μm) pre-coated with 2 μg/cm^2 poly-L-lysine and allowed to proliferate/differentiate for 48 hours in media. Media was then removed and the hCMEC/D3 cells suspended into EBM-2 media were seeded at a density of 1×10^5 cells/cm^2.
The co-culture was grown in EBM-2 with media changes every other day for an additional 7 days before studies were conducted. 600 μL of RPMI1640 medium supplemented with 1% FBS containing recombinant CCL5 or CXCL10 at 100 ng/mL was placed in the lower chamber of the Transwell® plate. Activated pNK cells (5×10^5) in 100 μL RPM11640 medium supplemented with 1% FBS were placed into the upper chamber (5-μm pore size). After incubation for 6 hours at 37° C. and 5% CO2, the number of pNK cells that migrated into the lower chamber was determined by flow cytometry. […]

Assay [3] deals with T1, CD73 (ecto-5'-nucleotidase, NT5E) on patient-derived GBM43 glioblastoma cells (human, UniProt P21589 27-549).
T1 construct: whole, on cells; Endogenous surface CD73 of human patient-derived GBM43 cells, in culture or as xenograft tumors
T1 sequence (looked up): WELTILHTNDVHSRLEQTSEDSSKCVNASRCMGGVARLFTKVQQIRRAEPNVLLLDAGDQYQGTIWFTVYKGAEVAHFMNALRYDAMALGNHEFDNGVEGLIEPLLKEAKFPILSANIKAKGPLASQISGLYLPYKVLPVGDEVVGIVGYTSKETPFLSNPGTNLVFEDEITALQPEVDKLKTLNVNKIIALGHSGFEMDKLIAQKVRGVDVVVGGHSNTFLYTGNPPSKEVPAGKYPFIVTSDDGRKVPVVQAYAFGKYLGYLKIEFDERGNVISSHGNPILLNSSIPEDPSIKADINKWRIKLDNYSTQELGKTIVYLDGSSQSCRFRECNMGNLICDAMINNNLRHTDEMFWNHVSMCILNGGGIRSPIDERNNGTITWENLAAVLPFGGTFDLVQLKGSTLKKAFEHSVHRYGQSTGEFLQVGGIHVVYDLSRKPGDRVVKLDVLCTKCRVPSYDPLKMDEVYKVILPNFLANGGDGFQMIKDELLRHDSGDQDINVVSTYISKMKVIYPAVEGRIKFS
Kind of assay: immunofluorescence (Protein L) on sections of subcutaneous GBM43 xenograft tumors.

The test system of the next assay is CD73. Kind of assay: CD73 activity of GBM43 cells (AMP hydrolysis, malachite green phosphate assay). The format is cell-based, human. On the procedure:
To test for CD73 activity and its ability to generate adenosine, GBM43 cells were seeded at 2×10^4 cells per well in a 96-well plate in complete DMEM. After overnight incubation, GBM43 cells were incubated with anti-CD73 scFv following uPA (100 nM)-mediated cleavage from either CD73.mCAR-NK92 or CD73.mCAR-pNK cells during incubation for 6 hours. Then, the cell medium was removed and cells were rinsed three times with phosphate-free buffer (117 mM NaCl, 5.3 mM KCl, 1.8 mM MgCl2, 26 mM NaHCO3, 10 mM glucose, pH 7.4, diluted in ddH2O). AMP (250 μM final), diluted in phosphate-free buffer, was added and incubated for 10 min at 37° C. Finally, the phosphate (Pi) concentrations resulting from AMP hydrolysis were measured using a malachite green phosphate assay kit following the manufacturer's instructions.

`Cc1ccc(S(=O)(=O)/C=C/C#N)cc1` [BAY11-7082]: in the assay on GBM43 cells, the “inhibition of the CQ-elevated production of CCL5 and CXCL10” value is listed as “significantly inhibited”.

As to `Nc1ncnc2c1ncn2[C@@H]1O[C@H](CO)[C@@H](O)[C@H]1O` [adenosine], in the assay with pNK cells [1] (CCK-8), the “cell viability of pNK cells” value is reported as “clear negative affect”. Besides, in the assay on pNK cells [1] (flow cytometry), the “NKG2D expression on pNK cells” value is “decreased”.

CXCL10: Recombinant human CXCL10: the “migration of activated pNK cells along ligand gradient across in vitro BBB” value in the assay on pNK cells [2] is “significantly increased”.

B1: CCL5: Recombinant human RANTES (CCL5) (protein, UniProt P13501 24-91, looked up)
C-C motif chemokine 5: SPYSSDTTPCCFAYIARPLPRAHIKEYFYTSGKCSNPAVVFVTRKNRQVCANPEKKWVREYINSLEMS
With B1, the “migration of activated pNK cells along ligand gradient across in vitro BBB” value with pNK cells [2] is “significantly increased”.

B2: anti-CD73 scFv cleaved by uPA or tumor-associated proteases from Construct 1 (CD73.mCAR) on engineered NK cells (scFv)
scFv: EVQLLESGGGLVQPGGSLRLSCAASGFTFSSYAYSWVRQAPGKGLEWVSAISGSGGRTYYADSVKGRFTISRDNSKNTLYLQMNSLRAEDTAVYYCARLGYGRVDEWGRGTLVTVSSGGGGSGGGGSGGGGSQSVLTQPPSASGTPGQRVTISCSGSLSNIGRNPVNWYQQLPGTAPKLLIYLDNLRLSGVPDRFSGSKSGTSASLAISGLQSEDEADYYCATWDDSHPGWTFGGGTKLTVLGGGGSGGGGSGGGGS
notes: Soluble fragment released from CD73.mCAR-NK92 or CD73.mCAR-pNK cells, by 100 nM uPA in vitro or by tumor proteases in vivo; also called αCD73 scFv; aCD73 scFv; not shown: the cleavage site is
For the molecule B2, in assay [3], the binding result is “binds”.

B3: anti-CD73 scFv: CD73-blocking single chain antibody fragment released from the CAR by uPA / tumor-associated protease cleavage (protein)
scFv: B2 scFv
modifications: left off: small tags and cut ends
For B3, the “production of extracellular adenosine by GBM43 cells (CD73 activity)” value with CD73 (scFv cleaved by uPA from CD73.mCAR-NK92 cells) is given as “significantly decreased production”. In the assay on CD73 (scFv cleaved from CD73.mCAR-pNK cells), the “ability of GBM43 cells to produce adenosine (CD73 activity)” value was “significantly reduced ability to produce adenosine”.
